Columns and labels:
polymerase and apyrase = assay: Sequencing of C. jejuni shotgun libraries, nucleotide-specific CAFIE fit of raw reads; type: biochemical; details: average over 200 reads
Excerpt: In the present example, DNA Shotgun libraries of the genome C. jejuni were sequenced to calculate the nucleotide species concentrations optimized for polymerase and apyrase efficiencies. The second (TA) and the third (CG) columns of Table 4 show the relative percentage of T and A to C and G nucleotide species concentrations used in sequencing runs where a value for the 100% concentration may be based upon the calculated and normalized species relative ratio values from Table 3. For instance, using the figures from Table 3 100% of the G nucleotide species is 1.2 times greater the 100% of the C nucleotide species given the concentration ratio. Those of ordinary skill in the art will appreciate that C. jejuni is an AT rich genome generally meaning that there is a higher incidence of A and T nucleotide species in the genome composition than C and G nucleotide species. Thus, the relative percentages for TA and GC concentrations illustrated in FIG. 4 reflect that fact and typically would be different for a GC rich genome (i.e. the genome of T. thermophilus).
The average completion efficiency (i.e. to estimate incomplete extension) and carry forward values of each individual nucleotide species were inferred using a method described in detail below. The last column presents the average read lengths (RL) of the high quality reads obtained where increased read length correlates to an increased level of optimization of the combination of each nucleotide species concentration that is balanced for the species specific incorporation efficiency of polymerase to degradation efficiency of apyrase.
The average completion efficiencies and carry forward values of the individual nucleotide species were inferred using nucleotide-specific CAFIE (carry forward and incompletion extension) fit. For example, the sequencing process produces raw sequence reads typically processed by an embodiment of Image and Signal Processing software such as application 135. In the present example, application 135 maps (also referred to as an alignment by those of ordinary skill in the art) the raw sequence reads generated to a reference genome sequence associated with the samples sequenced, such as a consensus reference sequence of C. jejuni. As will be evident to those of ordinary skill, mapping/aligning the raw uncorrected sequence reads to a reference sequence can be employed to determine where CAFIE error occurs and determination of incidence of nucleotide species specific CAFIE error.
In the presently described example application 135 mapped 200 uncorrected sequence reads, represented as flowgrams, to the reference genome sequence and the first 100 iterations of the nucleotide flows considered for determination of optimal concentration of each of the nucleotide species by inferring the completion efficiencies and carry forward values. The detected signal strengths of each of the four nucleotide species were first normalized using the median 1-mer value for all nucleotide species. The term “1-mer value” as used herein generally refers to a value reflecting the degree of detected signal in response to an incorporation of a nucleotide species at a single sequence position which should be substantially the same for each of the nucleotide species. Typically this the 1-mer value is easiest to calculate from detected signals obtained at the beginning of a sequencing run of a template nucleic acid molecule because the key element in an adaptor includes a single representative of each nucleotide species in a key element at a known position (i.e. a TCAG key element) and thus it is expected that only a single nucleotide of each species is incorporated at each of the four sequence positions.
The completion efficiency and carry forward values illustrated in Table 4 can be inferred using a three-stage minimization process for each individual sequence read. […]

apyrase = assay: Enzyme kinetics of apyrase across multiple nucleotides (Michaelis-Menten); type: biochemical; details: for Km: Michaelis constant of apyrase for the nucleotide species; for VApy-dNTP (estimated apyrase activity): Michaelis-Menten calculation, dTTP, α-thio-dATP, dCTP, dGTP at 40.3, 166.1, 16.3, 19.7 μM; for Vmax: maximum rate of apyrase for the nucleotide species; for Apyrase activity ratio: normalized to the value of dCTP
Excerpt: The nucleotide species specific steady-state apyrase concentration may be computed using what is referred to as the Michaelis-Menten kinetics to mathematically approximate the kinetic characteristics of an enzyme based upon the assumption that simple kinetic conditions exist. The Michaelis-Menten equation uses constant values that vary by nucleotide species and include the Michaelis constant KM and the maximum rate Vmax of enzyme activity in a reaction environment.
In the present example, apyrase is effectively exposed to only one type of nucleotide species at a given time due to the iterative nature of the sequencing reagent flows. The reaction rates between apyrase and each nucleotide species can be estimated using the following formula: […]
where [dNTP] is the concentration of dTTP, dATP, dCTP or dGTP.
Continuing with the present example, the nucleotide species concentrations used for the computation for dTTP, α-thio-dATP, dCTP and dGTP are 40.3, 166.1, 16.3 and 19.7 μM respectively in the reaction environment. It will be appreciated that the concentration value for α-thio-dATP is substantially higher than the concentrations of the other nucleotide species which is due to the modification that has an inhibitory effect upon the incorporation efficiency of a polymerase enzyme (i.e. thus a higher concentration improves the likelihood of polymerase incorporation) as well as an increased processing efficiency of the apyrase as illustrated in greater detail below. In some embodiments the more “natural” dATP species may be used in place of α-thio-dATP and may have a different value for nucleotide species concentration reflecting the higher efficiency of enzyme processing for that species. The estimated activities of apyrase from the Michaelis-Menten calculation towards the different nucleotide species are shown in the Table 2 below. It should again be noted that the calculated efficiency of apyrase to α-thio-dATP illustrated in Table 2 is substantially higher than for the other species and thus apyrase would be expected to process a higher concentration of α-thio-dATP in an efficient manner.

[1] = Run 1, relative concentration TA 120%, CG 140%
[2] = Run 2, relative concentration TA 140%, CG 140%
[3] = Run 3, relative concentration TA 120%, CG 160%

| Km (apyrase) | VApy-dNTP (estimated apyrase activity) (apyrase) | Vmax (apyrase) | Apyrase activity ratio (apyrase) | Structure (SMILES) | average carry forward (polymerase and apyrase; [1]) | average completion efficiency (polymerase and apyrase; [1]) | average carry forward (polymerase and apyrase; [2]) | average completion efficiency (polymerase and apyrase; [2]) | average carry forward (polymerase and apyrase; [3]) | average completion efficiency (polymerase and apyrase; [3]) |
| --- | --- | --- | --- | --- | --- | --- | --- | --- | --- | --- |
| 76.5 µM | 31.7 μM/10 min | 250.0 μM/10 min | 1.0 | Nc1ccn([C@H]2C[C@H](O)[C@@H](COP(=O)(O)OP(=O)(O)OP(=O)(O)O)O2)c(=O)n1 [dCTP] | 0.0062 | 0.9988 | 0.0058 | 0.9986 | 0.0065 | 0.9991 |
| 8.1 µM | 51.2 μM/10 min | 47.4 μM/10 min | 1.6 | Nc1nc2c(ncn2[C@H]2C[C@H](O)[C@@H](COP(=O)(O)OP(=O)(O)OP(=O)(O)O)O2)c(=O)[nH]1 [dGTP] | 0.0048 | 0.9990 | 0.0075 | 0.9992 | 0.0057 | 0.9994 |
| 107 µM | 80.4 μM/10 min | 294.1 μM/10 min | 2.5 | Cc1cn([C@H]2C[C@H](O)[C@@H](COP(=O)(O)OP(=O)(O)OP(=O)(O)O)O2)c(=O)[nH]c1=O [dTTP] | 0.0006 | 0.9968 | 0.0013 | 0.9975 | 0.0008 | 0.9959 |

| Structure (SMILES) | Km (apyrase) | VApy-dNTP (estimated apyrase activity) (apyrase) | Vmax (apyrase) | Apyrase activity ratio (apyrase) | average carry forward (polymerase and apyrase; [1]) | average completion efficiency (polymerase and apyrase; [1]) | average carry forward (polymerase and apyrase; [2]) | average completion efficiency (polymerase and apyrase; [2]) | average carry forward (polymerase and apyrase; [3]) | average completion efficiency (polymerase and apyrase; [3]) |
| --- | --- | --- | --- | --- | --- | --- | --- | --- | --- | --- |
| Nc1ncnc2c1ncn2[C@H]1C[C@H](O)[C@@H](COP(O)(=S)OP(=O)(O)OP(=O)(O)O)O1 (stereo partly drawn) [α-thio-dATP] | 115 µM | 137.5 μM/10 min | 232.6 μM/10 min | 4.3 | 0.0035 | 0.9977 | 0.0033 | 0.9971 | 0.0043 | 0.9978 |

Reference: patent US20110287432A1, “SYSTEM AND METHOD FOR TAILORING NUCLEOTIDE CONCENTRATION TO ENZYMATIC EFFICIENCIES IN DNA SEQUENCING TECHNOLOGIES” (454 Life Science Corporation, priority 2010, published 2011)
